“Also recorded” adds a separate entry of the source.
Assays:
Sprague-Dawley rats [1] = conditions: rat, in vivo
weanling pigs = conditions: pig, in vivo
Sprague-Dawley rats [2] = conditions: rat, in vivo; remark: listed apart in the source

7α,15-benzylidene-9α,12β-dimethyltrichothecan-3α,8α,12α-triol [EN139502]
delay before intensified fasting pattern (Sprague-Dawley rats [1]): approximately 5 min | effect on fasting pattern of gut motility (Sprague-Dawley rats [1]): intensify or enhance the fasting pattern | induction of fed pattern of gut motility (Sprague-Dawley rats [1]): did not induce the fed pattern gut motility

CC1=C[C@H]2O[C@@H]3[C@H](O)C[C@](C)([C@@]2(CO)[C@H](O)C1=O)[C@]31CO1 [DON, 3α,7α, 15-trihydroxy-12,13-epoxy-trichothec-9-en-8-one]
emesis (weanling pigs): some emesis occurred | food consumption in the Day 1 AM meal following the treat (weanling pigs): decreased food consumption | persistence of effect on food consumption at Day 1 PM and following meals (weanling pigs): wore off by the next meal | induction of fed pattern of gut motility (Sprague-Dawley rats [1]): induced the fed pattern of gut motility | food consumption (Sprague-Dawley rats [2]): immediate and sustained reduction; also recorded: concentration-dependant reduction; also recorded: decrease | weight gain (Sprague-Dawley rats [2]): immediate and sustained reduction; also recorded: concentration-dependant reduction; also recorded: decrease

C[C@@H]1C[C@H]2O[C@@H]3[C@H](O)C[C@](C)([C@]24COC(c2ccccc2)O[C@@H]4C1=O)[C@@]3(C)O (stereo partly drawn) [EN139522, 7α,15-benzylidene-9α, 12β-dimethyl-3α, 12α-dihydroxytricocethcan-8-one]
duration of action (fed pattern) (Sprague-Dawley rats [1]): 35 min | induction of fed pattern of gut motility (Sprague-Dawley rats [1]): induce a classic fed pattern | time of onset of action after administration (Sprague-Dawley rats [1]): 20 s

7α, 15-benzylidene-3α,8αdiacetoxy-9α,12β-dimethyltrichothecan-12α-ol [EN139508]
duration of induced pattern (Sprague-Dawley rats [1]): approximately 30 minutes | induction of fed pattern of gut motility (Sprague-Dawley rats [1]): induced a dose-dependent fed pattern of gut motility | onset time of action (duodenal site D1) (Sprague-Dawley rats [1]): approximately 60 seconds | pattern of gut motor activity induced (Sprague-Dawley rats [1]): induced a dose-dependent fed pattern of gut motility | time of onset of action after administration (Sprague-Dawley rats [1]): approximately 60 seconds

Source: patent US20040102514A1 (priority 2003, published 2004)
